This assay deals with MV4-11. Nature of the assay: 7-day proliferation assay (WST-8), cell growth inhibition. Format: cell-based. The following applies: MV4-11 cells, 7 days. How it is done: The effect of representative Compounds of the Disclosure on cell viability was determined in a 7-day proliferation assay. Cells were maintained in the appropriate culture medium with 10% FBS at 37° C. and an atmosphere of 5% CO2.
Cells were seeded in 96-well flat bottom (Corning COSTAR, Corning, NY, cat#3595) at a density of 2,000-3,000 cells/well in 100 μl of culture medium. Compounds were serially diluted in the appropriate medium, and […] the diluted compounds were added to the appropriate wells of the cell plate. After the addition of compounds, the cells were incubated at 37° C. in an atmosphere of 5% CO2 for 7 days. Cell viability was determined using the WST (2-(2-methoxy-4-nitrophenyl)-3-(4-nitrophenyl)-5-(2,4-disulfophenyl)-2H-tetrazolium, monosodium salt) Cell Counting-8 Kit (Dojindo Molecular Technologies, Inc., Rockville, Md.) according to the manufacturers' instructions.
WST-8 reagent was added to each well at a final concentration of 10% (v/v), and then the plates were incubated at 37° C. for 1-2 hours for color development. The absorbance was measured at 450 nm using a SPECTRAmax PLUS plate reader (Molecular Devices, Sunnyvale, Calif.). The readings were normalized to the DMSO-treated cells and the half maximal inhibitory concentration (IC50) was calculated by nonlinear regression (four parameters sigmoid fitted with variable slope, least squares fit, and no constraint) analysis using the GraphPad Prism 5 software (GraphPad Software, La Jolla, Calif.).
A general note: Tetrazolium dyes change colour on reduction, which living cells bring about.

Each structure is given as a SMILES string.

As a reminder, the IC50 is the midpoint of a concentration-inhibition curve. High values mean weaker potency, low ones greater potency. As for `C=CC(=O)Nc1cccc(S(=O)(=O)c2ccc(N3CC(CN4CCC([C@@](CN5CCC5)(c5cccc(F)c5)[C@H]5CCC[C@@H]5NC(=O)OC)CC4)C3)c(F)c2)c1` [compound 73], the IC50 (Homo sapiens, MV4-11, 168 h) was < 10 nM. Still for that read-out and setting: for `C=CC(=O)Nc1cc(S(=O)(=O)c2ccc(N3CC(CN4CCC([C@@](CN5CCC5)(c5cccc(F)c5)[C@H]5CCC[C@@H]5NC(=O)OC)CC4)C3)cc2)ccc1N(C)CCN(C)C` [compound 74] the value was < 50 nM; for `C=CC(=O)N(C)c1cccc(S(=O)(=O)c2ccc(N3CC(CN4CCC([C@@](CN5CCC5)(c5cccc(F)c5)[C@H]5CCC[C@@H]5NC(=O)OC)CC4)C3)cc2)c1` [compound 77], < 50 nM; for `C=CC(=O)Nc1cc(C(F)(F)F)cc(S(=O)(=O)c2ccc(N3CC(CN4CCC([C@@](CN5CCC5)(c5cccc(F)c5)[C@H]5CCC[C@@H]5NC(=O)OC)CC4)C3)cc2)c1` [compound 78], < 10 nM.

Take `C=CC(=O)Nc1cncc(S(=O)(=O)c2ccc(N3CC(CN4CCC([C@@](CN5CCC5)(c5cccc(F)c5)[C@H]5CCC[C@@H]5NC(=O)OC)CC4)C3)cc2)c1` [compound 79]: the IC50 (Homo sapiens, MV4-11, 168 h) is < 50 nM. With `C=CC(=O)Nc1cc(S(=O)(=O)c2ccc(N3CC(CN4CCC([C@@](CN5CCC5)(c5cccc(F)c5)[C@H]5CCC[C@@H]5NC(=O)OC)CC4)C3)cc2)ccc1C(F)(F)F` [compound 81], for the setting “Homo sapiens, MV4-11, 168 h”, the IC50 was < 50 nM.

For the compound `C=CC(=O)Nc1cncc(S(=O)(=O)c2ccc(N3CC(F)(CN4CCC([C@@](CN5CCC5)(c5cccc(F)c5)[C@H]5CCC[C@@H]5NC(=O)OC)CC4)C3)c(F)c2)c1` [compound 84], the concentration for half-maximal inhibition (IC50) (Homo sapiens, MV4-11, 168 h) is < 50 nM. The same measure, in the same setting: as for `C=CC(=O)Nc1ccnc(S(=O)(=O)c2ccc(N3CC(F)(CN4CCC([C@@](CN5CCC5)(c5cccc(F)c5)[C@H]5CCC[C@@H]5NC(=O)OC)CC4)C3)c(F)c2)c1` [compound 87], the figure is < 500 nM; as for `C=CC(=O)Nc1cc(F)cc(S(=O)(=O)c2ccc(N3CC(F)(CN4CCC([C@@](CN5CCC5)(c5cccc(F)c5)[C@H]5CCC[C@@H]5NC(=O)OC)CC4)C3)c(F)c2)c1` [compound 89], < 50 nM; as for `C=CC(=O)Nc1cc(S(=O)(=O)c2ccc(N3CC(F)(CN4CCC([C@@](CN5CCC5)(c5cccc(F)c5)[C@H]5CCC[C@@H]5NC(=O)OC)CC4)C3)c(F)c2)ccc1F` [compound 90], < 50 nM. Same read-out and setting: for `C=CC(=O)N1CC(S(=O)(=O)c2ccc(N3CC(F)(CN4CCC([C@@](CN5CCC5)(c5cccc(F)c5)[C@H]5CCC[C@@H]5NC(=O)OC)CC4)C3)c(F)c2)C1` [compound 93] the value was < 50 nM; for `COC(=O)N[C@H]1CCC[C@@H]1[C@](CN1CCC1)(c1cccc(F)c1)C1CCN(CC2(F)CN(c3ccc(S(=O)(=O)C4CN(C(=O)/C=C/CN(C)C)C4)cc3F)C2)CC1` [compound 96], < 10 nM. Same read-out and setting: for `C=CC(=O)Nc1cc(S(=O)(=O)c2ccc(N3CC(F)(CN4CCC([C@@](CN5CCC5)(c5cccc(F)c5)[C@H]5CCC[C@@H]5NC(=O)OC)CC4)C3)c(F)c2)ccc1C` [compound 97] the value was < 10 nM. `COC(=O)N[C@H]1CCC[C@@H]1[C@](CN1CCC1)(c1cccc(F)c1)C1CCN(CC2CN(c3ccc(S(=O)(=O)C4CN(C(=O)/C=C/CN5CCC(O)CC5)C4)cc3)C2)CC1` [compound 98]: the 50% inhibitory concentration (IC50) (Homo sapiens, MV4-11, 168 h) was < 10 nM.

Turning to `C#CC(=O)N1CC(S(=O)(=O)c2ccc(N3CC(F)(CN4CCC([C@@](CN5CCC5)(c5cccc(F)c5)[C@H]5CCC[C@@H]5NC(=O)OC)CC4)C3)c(F)c2)C1` [compound 101], under “Homo sapiens, MV4-11, 168 h”, the half-inhibitory concentration (IC50) was < 500 nM. Still for that read-out and setting: as for `C=CC(=O)Nc1cccc(S(=O)(=O)c2ccc(N3CC[C@@H](CN4CCC([C@@](CN5CCC5)(c5cccc(F)c5)[C@H]5CCC[C@@H]5NC(=O)OC)CC4)C3)cc2)c1` [compound 104], the figure is < 100 nM; as for `C=CC(=O)N1CCCC(S(=O)(=O)c2ccc(N3CC(F)(CN4CCC([C@@](CN5CCC5)(c5cccc(F)c5)[C@H]5CCC[C@@H]5NC(=O)OC)CC4)C3)c(F)c2)C1` (stereo partly shown) [compound 105], < 50 nM. Turning to `C=CC(=O)N1CCCC(S(=O)(=O)c2ccc(N3CC(F)(CN4CCC([C@@](CN5CCC5)(c5cccc(F)c5)[C@H]5CCC[C@@H]5NC(=O)OC)CC4)C3)c(F)c2)C1` (stereo partly shown) [compound 106], the IC50 was < 50 nM.

In the case of `C=CC(=O)N1CCC(S(=O)(=O)c2ccc(N3CC(F)(CN4CCC([C@@](CN5CCC5)(c5cccc(F)c5)[C@H]5CCC[C@@H]5NC(=O)OC)CC4)C3)c(F)c2)C1` (stereo partly shown) [compound 107], the concentration for half-maximal inhibition (IC50) is < 500 nM.

Take `C=CC(=O)N1CCC(S(=O)(=O)c2ccc(N3CC(F)(CN4CCC([C@@](CN5CCC5)(c5cccc(F)c5)[C@H]5CCC[C@@H]5NC(=O)OC)CC4)C3)c(F)c2)C1` (stereo partly shown) [compound 108]: the IC50 was < 100 nM. Turning to `CC#CC(=O)N1CCCC(S(=O)(=O)c2ccc(N3CC(F)(CN4CCC([C@@](CN5CCC5)(c5cccc(F)c5)[C@H]5CCC[C@@H]5NC(=O)OC)CC4)C3)c(F)c2)C1` (stereo partly shown) [compound 109], the half-maximal inhibitory concentration (IC50) (Homo sapiens, MV4-11, 168 h) was < 50 nM. Still for that read-out and setting: as for `COC(=O)N[C@H]1CCC[C@@H]1[C@](CN1CCC1)(c1cccc(F)c1)C1CCN(CC2(F)CN(c3ccc(S(=O)(=O)C4CCCN(C(=O)/C=C/CN5CCCCC5)C4)cc3F)C2)CC1` (stereo partly shown) [compound 110], the figure is < 100 nM; as for `C#CC(=O)N1CCCC(S(=O)(=O)c2ccc(N3CC(F)(CN4CCC([C@@](CN5CCC5)(c5cccc(F)c5)[C@H]5CCC[C@@H]5NC(=O)OC)CC4)C3)c(F)c2)C1` (stereo partly shown) [compound 111], < 500 nM; as for `C=CC(=O)N1CCCC(S(=O)(=O)c2ccc(N3CC(C)(CN4CCC([C@@](CN5CCC5)(c5cccc(F)c5)[C@H]5CCC[C@@H]5NC(=O)OC)CC4)C3)c(F)c2)C1` (stereo partly shown) [compound 113], < 50 nM. As for `CC#CC(=O)N1CCCC(S(=O)(=O)c2ccc(N3CC(F)(CN4CCC([C@@](CN5CCC5)(c5cccc(F)c5)[C@H]5CCC[C@@H]5NC(=O)OC)CC4)C3)c(F)c2)C1` (stereo partly shown) [compound 114], the half-inhibitory concentration (IC50) was < 50 nM. As to `CC#CC(=O)N1CC[C@@H](S(=O)(=O)c2ccc(N3CC(F)(CN4CCC([C@@](CN5CCC5)(c5cccc(F)c5)[C@H]5CCC[C@@H]5NC(=O)OC)CC4)C3)c(F)c2)C1` [compound 115], the 50% inhibitory concentration (IC50) (Homo sapiens, MV4-11, 168 h) is < 50 nM. In the case of `CCOC(=O)/C=C/CNC(=O)c1cccc(S(=O)(=O)c2ccc(N3CC(F)(CN4CCC([C@@](CN5CCC5)(c5cccc(F)c5)[C@H]5CCC[C@@H]5NC(=O)OC)CC4)C3)cc2)c1` [compound 119], the IC50 (Homo sapiens, MV4-11, 168 h) was < 100 nM. Still for that read-out and setting: as for `COC(=O)N[C@H]1CCC[C@@H]1[C@](CN1CCC1)(c1cccc(F)c1)C1CCN(CC2(F)CN(c3ccc(S(=O)(=O)c4cccc(C(=O)NC/C=C/S(C)(=O)=O)c4)cc3)C2)CC1` [compound 120], the figure is < 10 nM. On to `COC(=O)N[C@H]1CCC[C@@H]1[C@](CN1CCC1)(c1cccc(F)c1)C1CCN(CC2(F)CN(c3ccc(S(=O)(=O)C4CCCN(C(=O)C#CCO)C4)cc3F)C2)CC1` (stereo partly shown) [compound 121], for which, where the note is “Homo sapiens, MV4-11, 168 h”, the half-inhibitory concentration (IC50) was < 100 nM.

Take `COC(=O)N[C@H]1CCC[C@@H]1[C@](CN1CCC1)(c1cccc(F)c1)C1CCN(CC2(F)CN(c3ccc(S(=O)(=O)C4CCCN(C(=O)NC/C=C/S(C)(=O)=O)C4)cc3F)C2)CC1` (stereo partly shown) [compound 123]: the concentration for half-maximal inhibition (IC50) (Homo sapiens, MV4-11, 168 h) was < 10 nM. On the same count and under the same terms, for `COC(=O)N[C@H]1CCC[C@@H]1[C@](CNC(C)=O)(c1cccc(F)c1)C1CCN(CC2CN(c3ccc(S(=O)(=O)C4CN(C(=O)/C=C/CN5CCCCC5)C4)cc3)C2)CC1` [compound 129] the value was < 10 nM.

(Values after patent US20210115018A1, “PIPERIDINE COMPOUNDS AS COVALENT MENIN INHIBITORS” (THE REGENTS OF THE UNIVERSITY OF MICHIGAN, priority 2018, published 2021).)
